This note sets out measurements from US20250171438A1 (Agios Pharmaceuticals, Inc., priority 2022, published 2025).

Each structure is given as a SMILES string. Where two headings read alike, the source gives them in different places.

For this assay, the target named is T1, human PAH with the R408W mutation (Homo sapiens, UniProt P00439, R408W).
T1 construct: expressed in transfected cells
T1 sequence (P00439 1-452 R408W): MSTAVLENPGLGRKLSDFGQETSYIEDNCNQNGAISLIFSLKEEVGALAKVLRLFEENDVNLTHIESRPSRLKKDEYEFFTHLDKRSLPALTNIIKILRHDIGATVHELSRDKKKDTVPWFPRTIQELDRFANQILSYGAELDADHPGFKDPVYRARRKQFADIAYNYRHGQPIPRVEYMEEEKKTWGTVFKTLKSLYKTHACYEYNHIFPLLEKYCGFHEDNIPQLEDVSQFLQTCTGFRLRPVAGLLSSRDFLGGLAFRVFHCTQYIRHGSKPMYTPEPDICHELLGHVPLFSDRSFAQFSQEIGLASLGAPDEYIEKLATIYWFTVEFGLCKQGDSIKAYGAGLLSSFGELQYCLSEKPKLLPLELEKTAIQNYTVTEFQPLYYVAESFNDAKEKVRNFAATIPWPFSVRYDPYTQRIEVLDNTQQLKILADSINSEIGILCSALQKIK
Put plainly: Cell Based Phenylalanine Flux Assay. The arrangement: scale not given here. The settings on record: A375 cells expressing human R408W PAH, 13C-Tyrosine by LC-MS, average where tested multiple times.

Setting [1] is: 24 hrs compound incubation, read-out: AC50.
Setting [2] is: 24 hrs with compound, read-out: AC50.

On to `O=C([C@@H]1CC1(F)F)N1CCc2[nH]cnc2[C@@H]1c1nc2c(F)cccc2s1` [Example 1646, ((S)-2,2-difluorocyclopropyl)((R)-4-(4-fluorobenzo[d]thiazol-2-yl)-6,7-dihydro-1H-imidazo[4,5-c]pyridin-5(4H)-yl)methanone], for which, under setting [1], the half-maximal activity concentration (AC50) fell in the range of 1 to 5 µM.

Take `Cc1nnc(N2CCc3[nH]cnc3C2c2nc3ccccc3[nH]2)o1` (stereo not shown): the AC50 under setting [2] is more than 5 µM.

Take `O=C(c1ocnc1-c1ccccn1)N1CCc2[nH]cnc2[C@@H]1c1nc2ccccc2s1` [Example 1449, (R)-(4-(benzo[d]thiazol-2-yl)-6,7-dihydro-1H-imidazo[4,5-c]pyridin-5(4H)-yl)(4-(pyridin-2-yl)oxazol-5-yl)methanone]: the half-maximal activity concentration (AC50) under setting [1] was more than 5 µM.

Regarding `O=C(c1nccs1)N1CCc2[nH]cnc2[C@@H]1c1nc2cccc(Br)c2s1` [Example 1199, (R)-(4-(7-bromobenzo[d]thiazol-2-yl)-6,7-dihydro-1H-imidazo[4,5-c]pyridin-5(4H)-yl)(thiazol-2-yl)methanone], under setting [1], the AC50 lay within 1 to 5 µM.

Turning to `O=C(CCC1CC1)N1CCc2[nH]cnc2[C@H]1c1nc2cc(F)ccc2s1` [Example 1075, (S)-3-cyclopropyl-1-(4-(5-fluorobenzo[d]thiazol-2-yl)-6,7-dihydro-1H-imidazo[4,5-c]pyridin-5(4H)-yl)propan-1-one], the AC50 under setting [1] fell in the range of 0.5 to 1 µM.

Take `O=C(c1nc2ccccc2s1)N1CCc2[nH]cnc2C1c1nc2ccccc2[nH]1` (stereo not shown): the AC50 under setting [2] lay in the range of 1 to 5 µM.

As for `O=C(C1CN(c2ccccn2)C1)N1CCc2[nH]cnc2C1c1nc2ccccc2s1` (stereo not shown), under setting [2], the AC50 is more than 5 µM.

For the molecule `N#Cc1nc(-c2ccccn2)oc1C(=O)N1CCc2[nH]cnc2[C@H]1c1nc2ccccc2s1` [Example 1714, (S)-5-(4-(benzo[d]thiazol-2-yl)-4,5,6,7-tetrahydro-1H-imidazo[4,5-c]pyridine-5-carbonyl)-2-(pyridin-2-yl)oxazole-4-carbonitrile], under setting [1], the half-maximal activity concentration (AC50) is less than 0.5 µM.

As to `C[C@H](O)c1nc(C(F)F)c(C(=O)N2CCc3[nH]cnc3[C@H]2c2nc3c(F)cccc3s2)o1` [Example 1961, (4-(difluoromethyl)-2-((S)-1-hydroxyethyl)oxazol-5-yl) ((S)-4-(4-fluorobenzo[d]thiazol-2-yl)-6,7-dihydro-1H-imidazo[4,5-c]pyridin-5(4H)-yl)methanone], the AC50 under setting [1] is less than 0.5 µM.

`CC(C)(O)c1nc(CF)c(C(=O)N2CCc3[nH]cnc3[C@H]2c2nc3c(F)cccc3s2)o1` [Example 2065, (S)-(4-(4-fluorobenzo[d]thiazol-2-yl)-6,7-dihydro-1H-imidazo[4,5-c]pyridin-5(4H)-yl)(4-(fluoromethyl)-2-(2-hydroxypropan-2-yl)oxazol-5-yl)methanone]: the AC50 under setting [1] is less than 0.5 µM.

Turning to `O=C(N1CCC(c2ccccc2)C1)N1CCc2[nH]cnc2C1c1nc2ccccc2s1` (stereo not shown), the concentration at half-maximal activity (AC50) under setting [2] was more than 5 µM.

Take `COCCc1ccc2c(C(=O)N3CCc4[nH]cnc4C3c3nc4ccccc4s3)c(C(F)F)nn2c1` (stereo not shown): the AC50 entry (24 hrs with compound) was “E, E”.

`O=C(c1ncco1)N1CCc2[nH]cnc2[C@H]1c1nc2c(F)cccc2s1` [Example 1225, (S)-(4-(4-fluorobenzo[d]thiazol-2-yl)-6,7-dihydro-1H-imidazo[4,5-c]pyridin-5(4H)-yl)(oxazol-2-yl)methanone]: under setting [1], the concentration at half-maximal activity (AC50) was in the range of 0.5 to 1 µM.

Turning to `O=C(c1nncs1)N1CCc2[nH]cnc2[C@H]1c1nc2cccc(F)c2s1` [Example 1266, (S)-(4-(7-fluorobenzo[d]thiazol-2-yl)-6,7-dihydro-1H-imidazo[4,5-c]pyridin-5(4H)-yl)(1,3,4-thiadiazol-2-yl)methanone], under setting [1], the concentration at half-maximal activity (AC50) was less than 0.5 µM.

Turning to `CC(=O)Cn1cc(C(=O)N2CCc3[nH]cnc3C2c2nc3c(F)cccc3s2)cn1` (stereo not shown), the concentration at half-maximal activity (AC50) under setting [2] is 1 to 5 µM.

As to `CC(O)c1nc(Br)c(C(=O)N2CCc3[nH]cnc3[C@H]2c2nc3c(F)cccc3s2)o1` (single isomer, unassigned) [Example 2057], under setting [1], the AC50 was less than 0.5 µM.

Turning to `O=C(Cc1nc(C(F)(F)F)cs1)N1CCc2[nH]cnc2C1c1nc2c(F)cccc2s1` (stereo not shown), the AC50 under setting [2] is more than 5 µM.

With `Cc1cccc2sc(C3c4nc[nH]c4CCN3C(=O)c3cnn(C)c3Cl)nc12` (stereo not shown), under setting [2], the half-maximal activity concentration (AC50) fell in the range of 1 to 5 µM.

On to `O=C(N1CCc2[nH]cnc2[C@@H]1c1nc2ccccc2s1)C1(CF)CC1` [Example 1256, (R)-(4-(benzo[d]thiazol-2-yl)-6,7-dihydro-1H-imidazo[4,5-c]pyridin-5(4H)-yl)(1-(fluoromethyl)cyclopropyl)methanone], for which the AC50 under setting [1] is more than 5 µM.

Consider `O=C(c1cnco1)N1CCCc2[nH]cnc2C1c1nc2ccccc2s1` (stereo not shown), for which the AC50 under setting [2] is more than 5 µM.

In the case of `O=C(C1CC1(F)F)N1CCc2[nH]cnc2[C@@H]1c1nc2ccccc2s1` (single isomer, unassigned) [Example 1286], under setting [1], the AC50 fell in the range of 1 to 5 µM.

On to `O=C(c1cnc(-c2ccccc2)s1)N1CCc2[nH]cnc2[C@H]1c1nc2ccccc2s1` [Example 1203], for which the AC50 under setting [1] was 0.5 to 1 µM.

For `O=C(c1ncc(Cl)s1)N1CCc2[nH]cnc2C1c1nc2cccc(F)c2s1` (stereo not shown), the concentration at half-maximal activity (AC50) under setting [2] lay within 1 to 5 µM.

Regarding `O=C(c1oc(COC(F)(F)F)nc1C(F)F)N1CCc2[nH]cnc2[C@@H]1c1nc2ccccc2s1` [Example 1832, (R)-(4-(benzo[d]thiazol-2-yl)-6,7-dihydro-1H-imidazo[4,5-c]pyridin-5(4H)-yl)(4-(difluoromethyl)-2-((trifluoromethoxy)methyl)oxazol-5-yl)methanone], under setting [1], the AC50 was in the range of 1 to 5 µM.

As to `O=C(c1cnn(-c2ccccn2)c1Cl)N1CCc2[nH]cnc2[C@@H]1c1nc2ccccc2s1` [Example 1896, (R)-(4-(benzo[d]thiazol-2-yl)-6,7-dihydro-1H-imidazo[4,5-c]pyridin-5(4H)-yl)(5-chloro-1-(pyridin-2-yl)-1H-pyrazol-4-yl)methanone], under setting [1], the AC50 lay within 1 to 5 µM.

Consider `CC(C)(O)c1nc(C(=O)N2CCc3[nH]cnc3C2c2nc3c(F)cccc3s2)no1` (stereo not shown), for which, under setting [2], the AC50 lay within 1 to 5 µM.

Turning to `O=C(c1cc[nH]n1)N1CCc2[nH]cnc2C1c1nc2ccccc2[nH]1` (stereo not shown), under setting [2], the half-maximal activity concentration (AC50) lay in the range of 1 to 5 µM.

Regarding `CC(C)(O)c1noc(C(=O)N2CCc3[nH]cnc3C2c2nc3ccccc3s2)n1` (stereo not shown), under setting [2], the half-maximal activity concentration (AC50) is more than 5 µM.

Take `O=C(C1CCCC1)N1CCc2[nH]cnc2[C@H]1c1nc2ccccc2[nH]1` [(S)-(4-(1H-benzo[d]imidazol-2-yl)-1,4,6,7-tetrahydro-5H-imidazo[4,5-c]pyridin-5-yl)(cyclopentyl)methanone]: the concentration at half-maximal activity (AC50) under setting [2] was 1 to 5 µM.

Consider `O=C(c1cnc(C2CC2)o1)N1CCc2[nH]cnc2[C@@H]1c1nc2ccccc2s1` [Example 1188, (R)-(4-(benzo[d]thiazol-2-yl)-6,7-dihydro-1H-imidazo[4,5-c]pyridin-5(4H)-yl)(2-cyclopropyloxazol-5-yl)methanone], for which the half-maximal activity concentration (AC50) under setting [1] fell in the range of 1 to 5 µM.

Take `Fc1ccc2nc(N3CCc4[nH]cnc4C3c3nc4ccccc4s3)oc2c1` (stereo not shown): the AC50 entry (24 hrs with compound) is “E, E”.

Turning to `O=C(C1CCCCC1)N1CCc2[nH]cnc2[C@H]1c1nc2ccccc2[nH]1` [(S)-(4-(1H-benzo[d]imidazol-2-yl)-1,4,6,7-tetrahydro-5H-imidazo[4,5-c]pyridin-5-yl)(cyclohexyl)methanone], under setting [2], the AC50 lay within 1 to 5 µM.

In the case of `Cc1nc(CCCN2CC(F)C2)oc1C(=O)N1CCc2[nH]cnc2[C@H]1c1nc2ccccc2s1` [Example 1671], under setting [1], the half-maximal activity concentration (AC50) was 0.5 to 1 µM.

Consider `Cc1nnc(CCC(=O)N2CCc3[nH]cnc3C2c2nc3c(F)cccc3s2)s1` (stereo not shown), for which the AC50 under setting [2] is more than 5 µM.

As to `O=C(c1ncn2ccccc12)N1CCc2[nH]cnc2C1c1nc2ccc(Br)cc2[nH]1` (stereo not shown), under setting [2], the AC50 is more than 5 µM.

Turning to `Cc1cccc2sc([C@@H]3c4nc[nH]c4CCN3C(=O)c3cnn(C)c3C(F)F)nc12` [Example 2029, (S)-(5-(difluoromethyl)-1-methyl-1H-pyrazol-4-yl)(4-(4-methylbenzo[d]thiazol-2-yl)-6,7-dihydro-1H-imidazo[4,5-c]pyridin-5(4H)-yl)methanone], the AC50 under setting [1] lay in the range of 0.5 to 1 µM.

Regarding `O=C(c1cn[nH]c1)N1CCc2[nH]cnc2C1c1nc2ccccc2[nH]1` (stereo not shown), under setting [2], the AC50 is more than 5 µM.

`O=C(c1cnn2c(Br)cccc12)N1CCc2[nH]cnc2C1c1nc2ccc(Br)cc2[nH]1` (stereo not shown): the concentration at half-maximal activity (AC50) under setting [2] was more than 5 µM.

As to `O=C(c1nnc(-c2ccc(C(F)(F)F)cn2)o1)N1CCc2[nH]cnc2[C@H]1c1nc2ccccc2s1` [Example 1830], the half-maximal activity concentration (AC50) under setting [1] was in the range of 0.5 to 1 µM.

For the molecule `O=C(c1oc(/C=C/C2CC2)nc1C(F)(F)F)N1CCc2[nH]cnc2[C@@H]1c1nc2ccccc2s1` [Example 1568, (R,E)-(4-(benzo[d]thiazol-2-yl)-6,7-dihydro-1H-imidazo[4,5-c]pyridin-5(4H)-yl)(2-(2-cyclopropylvinyl)-4-(trifluoromethyl)oxazol-5-yl)methanone], the AC50 under setting [1] lay within 1 to 5 µM.

As for `O=C(c1oc(NC2CC2)nc1C(F)F)N1CCc2[nH]cnc2[C@H]1c1nc2ccccc2s1` [Example 1715], under setting [1], the AC50 is less than 0.5 µM.

Consider `O=C(c1cc2ccccn2n1)N1CCc2[nH]cnc2[C@H]1c1nc2ccccc2[nH]1` [(S)-(4-(1H-benzo[d]imidazol-2-yl)-6,7-dihydro-1H-imidazo[4,5-c]pyridin-5(4H)-yl)(pyrazolo[1,5-a]pyridin-2-yl)methanone], for which the half-maximal activity concentration (AC50) under setting [2] was more than 5 µM.

As for `O=C(c1cnn2ccc(Br)cc12)N1CCc2[nH]cnc2[C@H]1c1nc2ccccc2[nH]1` [Example 925, (S)-(4-(1H-benzo[d]imidazol-2-yl)-6,7-dihydro-3H-imidazo[4,5-c]pyridin-5(4H)-yl)(5-bromopyrazolo[1,5-a]pyridin-3-yl)methanone], the AC50 under setting [1] was in the range of 1 to 5 µM.

By AC50 is commonly meant the concentration giving half of the maximal activity seen.
